Reference: patent publication US20090281054A1, “COMPOSITIONS AND METHODS COMPRISING CAPURAMYCIN ANALOGUES” (priority 2008, published 2009)
≈ marks a conversion by molar mass, not a printed value. Where two headings read alike, the source gives them in different places.

What was measured:
[1] = tested on: M. smegmatis (MSMG; MC2155); assay: MIC by microdilution method in 7H9 broth; assay type: cell-based; conditions: 72 hr
[2] = tested on: M. abscessus (MAB; ATCC 700869); assay: MIC by microdilution method in 7H9 broth; assay type: cell-based; conditions: MAB 700869
[3] = tested on: M. kansaii (MKN; ATCC12478 & 35775); assay: MIC by microdilution method in 7H9 broth; assay type: cell-based, M. kansasii
M. avium complex (MAC) = assay: MIC by microdilution method in 7H9 broth; assay type: cell-based; conditions: for MIC90: value in square brackets
MAC = assay: Synergy by checkerboard titration (microdilution); assay type: cell-based, M. avium complex; conditions: for MIC: Mycobacterium avium, drug alone
MTB in J774A.1 cells = assay: Intracellular activity of SQ641 with efflux pump blockers; assay type: cell-based, Mycobacterium tuberculosis; conditions: J774A.1 cells; VE and CsA at 10 μM
translocase I = translocase I (Escherichia coli, UniProt P0A6W3); assay: IC50 against translocase I; assay type: biochemical
[4] = Mycolicibacterium smegmatis, MC2155|MC^2155, MSMG MC^2155, read-out: MIC
[5] = Mycobacteroides abscessus, ATCC700869, read-out: MIC
[6] = Mycobacterium kansasii, ATCC 12478 / ATCC 35775, MKN ATCC35775, read-out: MIC
[7] = Mycobacterium kansasii, MKN ATCC12478, read-out: MIC
[8] = Mycobacterium avium, MAC strain 100, read-out: MIC
[9] = Mycobacterium avium, MAC strain 101, read-out: MIC
[10] = Mycobacterium avium, MAC strain 104, read-out: MIC
[11] = Mycobacterium avium, MAC strain 109, read-out: MIC
[12] = Mycobacterium avium, MAC strain A5, read-out: MIC
[13] = Mycobacterium avium, MAC strain JSH1, read-out: MIC
[14] = Mycobacterium avium, MAC strain NIH C1-1, read-out: MIC
[15] = Mycobacterium avium, MAC strain NIH C1-2, read-out: MIC
[16] = Mycobacterium avium, MAC strain NIH C1-3, read-out: MIC
[17] = Mycobacterium avium, MAC strain NIH C1-4, read-out: MIC
[18] = Mycobacterium avium, MAC isolates, read-out: MIC90
[19] = Mycobacterium avium, 336 h, MAC isolates, 2 wk, read-out: MIC (range)

Sequence of translocase I (P0A6W3 whole entry): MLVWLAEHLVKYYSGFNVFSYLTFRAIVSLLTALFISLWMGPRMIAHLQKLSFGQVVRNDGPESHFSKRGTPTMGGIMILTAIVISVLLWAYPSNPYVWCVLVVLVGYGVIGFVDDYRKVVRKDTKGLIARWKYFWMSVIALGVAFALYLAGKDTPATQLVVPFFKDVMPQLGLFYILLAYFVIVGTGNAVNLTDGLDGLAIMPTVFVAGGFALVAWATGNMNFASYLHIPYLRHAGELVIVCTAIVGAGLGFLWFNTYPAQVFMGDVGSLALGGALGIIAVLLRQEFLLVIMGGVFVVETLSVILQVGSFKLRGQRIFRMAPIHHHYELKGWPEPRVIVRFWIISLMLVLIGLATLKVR

In the case of `NCC[C@H](O)C(=O)N[C@@H]1C[C@H](N)[C@@H](O[C@H]2O[C@H](CN)[C@@H](O)[C@H](O)[C@H]2O)[C@H](O)[C@H]1O[C@H]1O[C@H](CO)[C@@H](O)[C@H](N)[C@H]1O` [AMK, amikacin, reference compound], the MIC [1, 4] was 0.5 µg/mL (≈ 0.854 µM), the MIC [2, 5] was 4 µg/mL (≈ 6.83 µM) and the MIC [3, 6] was 2 µg/mL (≈ 3.42 µM). The MIC [3, 7] was 2 µg/mL (≈ 3.42 µM), the MIC (M. avium complex (MAC); [8]) was 8 µg/mL (≈ 13.7 µM) and the MIC (M. avium complex (MAC); [9]) was 2 µg/mL (≈ 3.42 µM). It also gave an MIC (M. avium complex (MAC); [10]) of 16 µg/mL (≈ 27.3 µM), an MIC (M. avium complex (MAC); [11]) of 1 µg/mL (≈ 1.71 µM) and an MIC (M. avium complex (MAC); [12]) of 4 µg/mL (≈ 6.83 µM). It also gave an MIC (M. avium complex (MAC); [13]) of 8 µg/mL (≈ 13.7 µM), an MIC (M. avium complex (MAC); [14]) of 8 µg/mL (≈ 13.7 µM) and an MIC (M. avium complex (MAC); [15]) of 32 µg/mL (≈ 54.6 µM). For the same compound, the MIC (M. avium complex (MAC); [16]) was 8 µg/mL (≈ 13.7 µM), the MIC (M. avium complex (MAC); [17]) was 4 µg/mL (≈ 6.83 µM) and the MIC90 (M. avium complex (MAC); [18]) was 16 µg/mL (≈ 27.3 µM). For the same compound, the “MIC Combination” value (MAC; MAC A5, combination SQ641 + AMK) was 0.5 µg/mL, the “MIC Combination” value (MAC; MAC JSH1, combination SQ641 + AMK) was 8.0 µg/mL and the “MIC Combination” value (MAC; MAC NIH C1-1, combination SQ641 + AMK) was 4.0 µg/mL. It also gave an MIC (MAC; MAC A5) of 2 µg/mL, an MIC (MAC; MAC JSH1) of 16 µg/mL and an MIC (MAC; MAC NIH C1-1) of 8 µg/mL.

For `O=C(O)c1cn(C2CC2)c2cc(N3CCNCC3)c(F)cc2c1=O` [CIP, reference compound], the MIC ([1]; MSMG MC^2155) was 0.5 µg/mL (≈ 1.51 µM), the MIC [2] was greater than 32 µg/mL and the MIC ([3]; MKN ATCC12478) was 2 µg/mL (≈ 6.04 µM). For the same compound, the MIC ([3]; MKN ATCC35775) was 0.25 µg/mL (≈ 0.754 µM), the “MIC range” value (M. avium complex (MAC); MAC isolates, 2 wk) was 0.125 to 32 µg/mL and the MIC90 (M. avium complex (MAC); MAC isolates) was 2 µg/mL (≈ 6.04 µM).

Compound `CC[C@H]1OC(=O)[C@H](C)[C@@H](O[C@H]2C[C@@](C)(OC)[C@@H](O)[C@H](C)O2)[C@H](C)[C@@H](O[C@@H]2O[C@H](C)C[C@H](N(C)C)[C@H]2O)[C@](C)(OC)C[C@@H](C)C(=O)[C@H](C)[C@@H](O)[C@]1(C)O` [CLA, clarithromycin, reference compound] has an MIC [1, 4] of 2 µg/mL (≈ 2.67 µM), an MIC [2, 5] greater than 32 µg/mL and an MIC [3, 6] of 0.25 µg/mL (≈ 0.334 µM). For the same compound, the MIC [3, 7] was 0.25 µg/mL (≈ 0.334 µM), the MIC (M. avium complex (MAC); [19]) was 0.062 to 32 µg/mL (≈ 0.0829 to 42.8 µM) and the MIC (M. avium complex (MAC); [8]) was 0.25 µg/mL (≈ 0.334 µM). For the same compound, the MIC (M. avium complex (MAC); [9]) was 0.125 µg/mL (≈ 0.167 µM), the MIC (M. avium complex (MAC); [10]) was 0.5 µg/mL (≈ 0.668 µM) and the MIC (M. avium complex (MAC); [11]) was 0.062 µg/mL (≈ 0.0829 µM). It also gave an MIC (M. avium complex (MAC); [12]) of 0.125 µg/mL (≈ 0.167 µM), an MIC (M. avium complex (MAC); [13]) of 2 µg/mL (≈ 2.67 µM) and an MIC (M. avium complex (MAC); [14]) of 1 µg/mL (≈ 1.34 µM). The MIC (M. avium complex (MAC); [15]) was 0.25 µg/mL (≈ 0.334 µM), the MIC (M. avium complex (MAC); [16]) was 32 µg/mL (≈ 42.8 µM) and the MIC (M. avium complex (MAC); [17]) was 1 µg/mL (≈ 1.34 µM). For the same compound, the MIC90 (M. avium complex (MAC); [18]) was 2 µg/mL (≈ 2.67 µM), the “MIC Combination” value (MAC; MAC A5, combination SQ641 + CLA) was 0.031 µg/mL and the “MIC Combination” value (MAC; MAC JSH1, combination SQ641 + CLA) was 1 µg/mL. The “MIC Combination” value (MAC; MAC NIH C1-1, combination SQ641 + CLA) was 2.0 µg/mL, the MIC (MAC; MAC A5) was 0.125 µg/mL and the MIC (MAC; MAC JSH1) was 1 µg/mL. For the same compound, the MIC (MAC; MAC NIH C1-1) was 2 µg/mL.

For `Cc1ccc(C)c(OCCCC(C)(C)C(=O)O)c1` [GF, gemfibrozil, reference compound], the “Effect of efflux pump blocker on intracellular activity of SQ641 against MTB” value (MTB in J774A.1 cells) was “only moderate effects”.

`COc1c(N2C[C@@H]3CCCN[C@@H]3C2)c(F)cc2c(=O)c(C(=O)O)cn(C3CC3)c12` [MOX, moxifloxacin, reference compound] gave an MIC ([1]; Mycolicibacterium smegmatis, MC2155|MC^2155, read-out: MIC) of 0.125 µg/mL (≈ 0.311 µM), an MIC [2, 5] greater than 32 µg/mL and an MIC [3, 6] of 0.031 µg/mL (≈ 0.0772 µM). For the same compound, the MIC [3, 7] was 0.125 µg/mL (≈ 0.311 µM).

In the case of `CCCN(CCC)S(=O)(=O)c1ccc(C(=O)O)cc1` [PB, probenecid, reference compound], the “Effect of efflux pump blocker on intracellular activity of SQ641 against MTB” value (MTB in J774A.1 cells) was “only moderate effects”.

In the case of `CO[C@H]1[C@@H](O)[C@H](n2ccc(=O)[nH]c2=O)O[C@@H]1[C@@H](O[C@H]1OC(C(=O)Nc2ccc(C(F)(F)F)cc2)=C[C@H](O)[C@@H]1O)C(N)=O` [RKS2033], the “IC50 against translocase I” value (translocase I) was 30 ng/mL (≈ 0.0498 µM), the MIC [1, 4] was 4 µg/mL (≈ 6.64 µM) and the MIC [2, 5] was 2 µg/mL (≈ 3.32 µM). The MIC [3, 6] was 2 µg/mL (≈ 3.32 µM), the MIC [3, 7] was 16 µg/mL (≈ 26.6 µM) and the MIC (M. avium complex (MAC); [19]) was 1 to 8 µg/mL (≈ 1.66 to 13.3 µM). It also gave an MIC (M. avium complex (MAC); [8]) of 2 µg/mL (≈ 3.32 µM), an MIC (M. avium complex (MAC); [9]) of 2 µg/mL (≈ 3.32 µM) and an MIC (M. avium complex (MAC); [10]) of 1 µg/mL (≈ 1.66 µM). It also gave an MIC (M. avium complex (MAC); [11]) of 1 µg/mL (≈ 1.66 µM), an MIC (M. avium complex (MAC); [12]) of 2 µg/mL (≈ 3.32 µM) and an MIC (M. avium complex (MAC); [13]) of 2 µg/mL (≈ 3.32 µM). The MIC (M. avium complex (MAC); [14]) was 4 µg/mL (≈ 6.64 µM), the MIC (M. avium complex (MAC); [15]) was 2 µg/mL (≈ 3.32 µM) and the MIC (M. avium complex (MAC); [16]) was 8 µg/mL (≈ 13.3 µM). The MIC (M. avium complex (MAC); [17]) was 2 µg/mL (≈ 3.32 µM) and the MIC90 (M. avium complex (MAC); [18]) was 4 µg/mL (≈ 6.64 µM).

With `COC(=O)C1=C[C@H](O)[C@H](O)[C@@H](O[C@@H](C(N)=O)[C@H]2O[C@@H](n3ccc(=O)[nH]c3=O)[C@H](O)[C@@H]2OC)O1` [RS 120029] the MIC [1, 4] was greater than 32 µg/mL, the MIC [2, 5] was greater than 32 µg/mL and the MIC [3, 6] was greater than 32 µg/mL. For the same compound, the MIC [3, 7] was greater than 32 µg/mL, the MIC (M. avium complex (MAC); [8]) was 32 µg/mL (≈ 67.6 µM) and the MIC (M. avium complex (MAC); [9]) was greater than 32 µg/mL. The MIC (M. avium complex (MAC); [10]) was 32 µg/mL (≈ 67.6 µM), the MIC (M. avium complex (MAC); [11]) was 32 µg/mL (≈ 67.6 µM) and the MIC (M. avium complex (MAC); [12]) was 32 µg/mL (≈ 67.6 µM). It also gave an MIC (M. avium complex (MAC); [13]) greater than 32 µg/mL, an MIC (M. avium complex (MAC); [14]) greater than 32 µg/mL and an MIC (M. avium complex (MAC); [15]) greater than 32 µg/mL. The MIC (M. avium complex (MAC); [16]) was greater than 32 µg/mL, the MIC (M. avium complex (MAC); [17]) was greater than 32 µg/mL and the MIC90 (M. avium complex (MAC); [18]) was 32 µg/mL (≈ 67.6 µM).
